What was measured:
Type in all cases: binding
double-stranded DNA = assay: Detecting double-stranded DNA in solution (fluorescence microplate reader)
Protocol: Samples containing 0.1 ng/mL to 1 microgram/mL double-stranded DNA are prepared in 10 mM Tris-HCl, 1 mM EDTA, pH 7.5. The selected dye of the invention is dissolved in DMSO at a concentration of 1-10 mM and then diluted into the same buffer at a concentration sufficient to achieve final optical densities of 0.1 and 0.01 at 500 nm, 530 nm, 540 nm or 560 nm. Equal volumes (100 microliters each) of DNA sample solution and dye solution at each concentration are combined and mixed gently at room temperature in a microplate well.
Samples are allowed to equilibrate for 5-60 minutes, protected from light, and the fluorescence of the sample is measured using a fluorescence microplate reader. DNA concentration is determined by comparison of the sample fluorescence with a standard curve obtained with that dye for each dye concentration. The sensitivity limit of several dyes in this assay is shown (Table 5).

[1] = test system: double-stranded bacteriophage λ cl857 DNA that is digested with HindIII restriction endonuclease; assay: Detecting nucleic acids in gels; details: 1 micromolar dye
Protocol: DNA samples are loaded onto agarose or polyacrylamide gels and electrophoresed using standard conditions. Selected dyes of the invention are dissolved in DMSO at a concentration of 1-10 micromolar and diluted into 0.5×TBE buffer to a final concentration of 1 micromolar dye. Gels are incubated for 20-90 minutes in this staining solution, with gentle agitation, at room temperature, protected from light. Nucleic acids are visualized by transillumination at 300 nm, followed by direct visual detection or photography using Polaroid black-and-white print film. Nucleic acids are alternatively visualized by scanning using a FMBIO II laser scanner with a 532 nm frequency-doubled YAG laser source or a charge-coupled device camera system coupled with an ultraviolet (300 nm) light source, or a visible light transilluminator.

[2] = test system: double-stranded bacteriophage λ cl857 DNA that is digested with HindIII restriction endonuclease; assay: Detecting nucleic acids in gels; details: POLAROID 667 B&W film; FOTODYNE 254 nm epi.; 1 micromolar dye
[3] = test system: 18-base oligodeoxynucleotide sequencing primer; assay: Detecting oligonucleotides in solution
Protocol: Selected dyes of the invention are dissolved in DMSO at 1-10 micromolar concentration, then diluted into 10 mM Tris-HCl, 1 mM EDTA, pH 7.5 to a final optical density of 0.1 or 0.01 at 530 nm or 540 nm. The resulting dye solutions are combined with an equal volume of an 18-base oligodeoxynucleotide sequencing primer solution at concentrations of 0.1 ng/mL to 1 microgram/mL in the same buffer. The resulting mixture is mixed gently and incubated for 5-60 minutes at room temperature, protected from light, and the sample fluorescence is measured in a fluorescence microplate reader.

[4] = test system: Escherichia coli ribosomal RNA; assay: Detecting RNA in solution
Protocol: Selected dyes of the invention are dissolved in DMSO at 1-10 micromolar concentration, then diluted into 10 mM Tris-HCl, 1 mM EDTA, pH 7.5 to a final optical density of 0.1 or 0.01 at 530 nm or 540 nm. These dye solutions are combined with an equal volume of Escherichia coli ribosomal RNA at concentrations ranging from 0.25 ng/mL to 1 microgram/mL in microplate wells. The resulting mixtures are mixed gently and incubated for 5-60 minutes at room temperature, protected from light, and the sample fluorescence is measured.

[5] = Excitation 530 nm/Emission 560 nm
[6] = BOEHRINGER MANNHEIM LUMIIMAGER CCD, 300 nm trans., 520 nm em.
[7] = BOEHRINGER MANNHEIM LUMIIMAGER CCD, 300 nm trans., 545 nm em
[8] = HITACHI FMBIO II laser scanner, 532 nm freq.-doubled YAG laser
[9] = POLAROID 667 B&W film, DARK READER visible light box
[10] = POLAROID 667 B&W film, FOTODYNE 300 nm trans.
[11] = Excitation 540 nm/Emission 570 nm
[12] = Excitation 560 nm/Emission 585 nm
[13] = Excitation 500 nm/Emission 560 nm

CCCCC1=C/C(=C\c2nc3c(ccc[n+]3C)o2)c2ccccc2N1c1ccccc1.[I-] [Compound 15]
Sensitivity Limit, High dye concentration (0.1 OD) (double-stranded DNA; [5]): 10 ng/mL
Sensitivity Limit, Low dye concentration (0.01 OD) (double-stranded DNA; [5]): 0.5 ng/mL
Sensitivity for detecting double-stranded DNA in agarose gels [1, 6]: 210 pg
Sensitivity for detecting double-stranded DNA in agarose gels [1, 7]: 100 pg
Sensitivity for detecting double-stranded DNA in agarose gels [1, 8]: 100 pg
Sensitivity for detecting double-stranded DNA in agarose gels [1, 9]: 480 pg
Sensitivity for detecting double-stranded DNA in agarose gels [1, 10]: 240 pg
Sensitivity for detecting double-stranded DNA in agarose gels [2]: 60 pg

C[n+]1cccc2oc(/C=C3\C=C(c4ccccc4)N(c4ccccc4)c4ccccc43)nc21.[I-] [Compound 17]
Sensitivity Limit, High dye concentration (0.1 OD) (double-stranded DNA; [5]): <10 ng/mL
Sensitivity Limit, Low dye concentration (0.01 OD) (double-stranded DNA; [5]): 2.0 ng/mL

CCN1C(c2ccccc2)=C/C(=C\c2nc3c(ccc[n+]3C)o2)c2cc3c(cc21)OCO3.[I-] [Compound 18]
Sensitivity Limit, High dye concentration (0.1 OD) (double-stranded DNA; [5]): <10 ng/mL
Sensitivity Limit, Low dye concentration (0.01 OD) (double-stranded DNA; [5]): 0.2 to 0.5 ng/mL
Sensitivity Limit, High dye concentration (0.1 OD) [3, 5]: <10 ng/mL
Sensitivity Limit, Low dye concentration (0.01 OD) [3, 5]: >10 ng/mL
Sensitivity Limit, High dye concentration (0.1 OD) [4, 5]: 10 ng/mL
Sensitivity Limit, Low dye concentration (0.01 OD) [4, 5]: 1.2 ng/mL
Sensitivity for detecting double-stranded DNA in agarose gels [1, 6]: 210 pg
Sensitivity for detecting double-stranded DNA in agarose gels [1, 7]: 100 pg
Sensitivity for detecting double-stranded DNA in agarose gels [1, 8]: 50 pg
Sensitivity for detecting double-stranded DNA in agarose gels [1, 10]: 120 pg
Sensitivity for detecting double-stranded DNA in agarose gels [2]: 60 pg

COc1ccc2c(c1)/C(=C/c1nc3c(ccc[n+]3C)o1)C=C(c1ccccc1)N2C.[I-] [Compound 19]
Sensitivity Limit, High dye concentration (0.1 OD) (double-stranded DNA; [11]): <10 ng/mL
Sensitivity Limit, Low dye concentration (0.01 OD) (double-stranded DNA; [11]): 0.5 ng/mL
Sensitivity Limit, High dye concentration (0.1 OD) [3, 11]: <10 ng/mL
Sensitivity Limit, Low dye concentration (0.01 OD) [3, 11]: >10 ng/mL
Sensitivity Limit, High dye concentration (0.1 OD) [4, 11]: 20 ng/mL
Sensitivity Limit, Low dye concentration (0.01 OD) [4, 11]: 10 ng/mL

COc1ccc2c(c1)N(C)C(c1ccccc1)=C/C2=C\c1nc2c(ccc[n+]2C)o1.[I-] [Compound 21]
Sensitivity Limit, High dye concentration (0.1 OD) (double-stranded DNA; [5]): <10 ng/mL
Sensitivity Limit, Low dye concentration (0.01 OD) (double-stranded DNA; [5]): 0.2 ng/mL
Sensitivity for detecting double-stranded DNA in agarose gels [1, 6]: 420 pg
Sensitivity for detecting double-stranded DNA in agarose gels [1, 7]: 50 pg
Sensitivity for detecting double-stranded DNA in agarose gels [1, 8]: 50 pg
Sensitivity for detecting double-stranded DNA in agarose gels [1, 10]: 120 pg
Sensitivity for detecting double-stranded DNA in agarose gels [2]: 60 pg

CCN(CC)Cc1ccc(C2=C/C(=C\c3nc4c(ccc[n+]4C)o3)c3cc(OC)ccc3N2C)cc1.[I-] [Compound 23]
Sensitivity Limit, High dye concentration (0.1 OD) (double-stranded DNA; [11]): <10 ng/mL
Sensitivity Limit, Low dye concentration (0.01 OD) (double-stranded DNA; [11]): 0.2 ng/mL
Sensitivity Limit, High dye concentration (0.1 OD) [3, 11]: <10 ng/mL
Sensitivity Limit, Low dye concentration (0.01 OD) [3, 11]: 1.0 ng/mL
Sensitivity Limit, High dye concentration (0.1 OD) [4, 11]: 200 ng/mL
Sensitivity Limit, Low dye concentration (0.01 OD) [4, 11]: 2.5 ng/mL
Sensitivity for detecting double-stranded DNA in agarose gels [1, 6]: 830 pg
Sensitivity for detecting double-stranded DNA in agarose gels [1, 7]: 100 pg
Sensitivity for detecting double-stranded DNA in agarose gels [1, 8]: 5 pg
Sensitivity for detecting double-stranded DNA in agarose gels [1, 9]: 240 pg
Sensitivity for detecting double-stranded DNA in agarose gels [1, 10]: 120 pg
Sensitivity for detecting double-stranded DNA in agarose gels [2]: 60 pg

C[n+]1cccc2oc(/C=C3\C=C(Cl)N(c4ccccc4)c4ccccc43)nc21 [Compound 29]
Sensitivity Limit, High dye concentration (0.1 OD) (double-stranded DNA; [11]): 100 ng/mL
Sensitivity Limit, Low dye concentration (0.01 OD) (double-stranded DNA; [11]): 2.0 ng/mL

CCN(CC)C1=C/C(=C\c2nc3c(ccc[n+]3C)o2)c2ccccc2N1c1ccccc1 [Compound 30]
Sensitivity Limit, High dye concentration (0.1 OD) (double-stranded DNA; [5]): 10 ng/mL
Sensitivity Limit, Low dye concentration (0.01 OD) (double-stranded DNA; [5]): 1.0 ng/mL

CN1C=C/C(=C\c2nc3cc[n+](C)cc3o2)c2ccccc21.[I-] [Compound 31]
Sensitivity Limit, High dye concentration (0.1 OD) (double-stranded DNA; [5]): 50 ng/mL
Sensitivity Limit, Low dye concentration (0.01 OD) (double-stranded DNA; [5]): 2.0 ng/mL

CN1C(Sc2ccccn2)=C/C(=C\c2nc3c(ccc[n+]3C)s2)c2ccccc21.[I-] [Compound 32]
Sensitivity Limit, High dye concentration (0.1 OD) (double-stranded DNA; [5]): 10 ng/mL
Sensitivity Limit, Low dye concentration (0.01 OD) (double-stranded DNA; [5]): 1.0 ng/mL

CN1C=C/C(=C\c2sc3ncccc3[n+]2C)c2ccccc21.[I-] [Compound 33]
Sensitivity Limit, High dye concentration (0.1 OD) (double-stranded DNA; [11]): 100 ng/mL
Sensitivity Limit, Low dye concentration (0.01 OD) (double-stranded DNA; [11]): >10 ng/mL

CN1C=C/C(=C\c2nc3c(cc(Cl)c[n+]3C)s2)c2ccccc21.[I-] [Compound 34]
Sensitivity Limit, High dye concentration (0.1 OD) (double-stranded DNA; [11]): <10 ng/mL
Sensitivity Limit, Low dye concentration (0.01 OD) (double-stranded DNA; [11]): 0.2 ng/mL

CN1C=C/C(=C\c2nc3c(cc(Cl)c[n+]3C)s2)c2ccccc21.[I-] [Compound 35]
Sensitivity Limit, High dye concentration (0.1 OD) (double-stranded DNA; [11]): 10 ng/mL
Sensitivity Limit, Low dye concentration (0.01 OD) (double-stranded DNA; [11]): 0.5 ng/mL

CN1C=C/C(=C\c2nc3c(cc(Cl)c[n+]3C)s2)c2ccccc21.[I-] [Compound 37]
Sensitivity Limit, High dye concentration (0.1 OD) (double-stranded DNA; [12]): 10 ng/mL
Sensitivity Limit, Low dye concentration (0.01 OD) (double-stranded DNA; [12]): 2.0 ng/mL

CN1C=C/C(=C\c2nc3c(cc(Cl)c[n+]3C)s2)c2ccccc21.[I-] [Compound 38]
Sensitivity Limit, High dye concentration (0.1 OD) (double-stranded DNA; [12]): 200 ng/mL
Sensitivity Limit, Low dye concentration (0.01 OD) (double-stranded DNA; [12]): 5.0 ng/mL

CN1C=C/C(=C\c2nc3c(cc(Cl)c[n+]3C)s2)c2ccccc21.[I-] [Compound 39]
Sensitivity Limit, High dye concentration (0.1 OD) (double-stranded DNA; [12]): 10 ng/mL
Sensitivity Limit, Low dye concentration (0.01 OD) (double-stranded DNA; [12]): 5.0 ng/mL

CN1C=C/C(=C\c2nc3c(cc(Cl)c[n+]3C)s2)c2ccccc21.[I-] [Compound 40]
Sensitivity Limit, High dye concentration (0.1 OD) (double-stranded DNA; [12]): 10 ng/mL
Sensitivity Limit, Low dye concentration (0.01 OD) (double-stranded DNA; [12]): 1.0 ng/mL

CN1C(Cl)=C/C(=C\c2nc3c(cc(Cl)c[n+]3C)s2)c2ccccc21.[Cl-] [Compound 41]
Sensitivity Limit, High dye concentration (0.1 OD) (double-stranded DNA; [12]): 10 ng/mL
Sensitivity Limit, Low dye concentration (0.01 OD) (double-stranded DNA; [12]): >10 ng/mL

CN1C=C/C(=C\c2nc3c(ccc[n+]3C)o2)c2ccccc21.Cc1ccc(S(=O)(=O)[O-])cc1 [Compound 48]
Sensitivity Limit, High dye concentration (0.1 OD) (double-stranded DNA; [13]): 10 ng/mL
Sensitivity Limit, Low dye concentration (0.01 OD) (double-stranded DNA; [13]): >10 ng/mL

CN1C=CC(Cc2sc3c(F)nc(F)c(F)c3[n+]2C)c2ccccc21.[I-] (stereo not drawn) [Compound 49]
Sensitivity Limit, High dye concentration (0.1 OD) (double-stranded DNA; [13]): 20 ng/mL
Sensitivity Limit, Low dye concentration (0.01 OD) (double-stranded DNA; [13]): >10 ng/mL

CC1/C(=C/c2nc3c(ccc[n+]3C)o2)C=Cc2ccccc21.Cc1ccc(S(=O)(=O)[O-])cc1 (stereo not drawn) [Compound 53]
Sensitivity Limit, High dye concentration (0.1 OD) (double-stranded DNA; [13]): 10 ng/mL
Sensitivity Limit, Low dye concentration (0.01 OD) (double-stranded DNA; [13]): >10 ng/mL

COC1=C/C(=C\c2nc3c(ccc[n+]3C)o2)c2ccccc2N1C [Compound 54]
Sensitivity Limit, High dye concentration (0.1 OD) (double-stranded DNA; [13]): 10 ng/mL
Sensitivity Limit, Low dye concentration (0.01 OD) (double-stranded DNA; [13]): 1.0 ng/mL

— patent US8883415B2, “Aza-benzazolium containing cyanine dyes” (Life Technologies Corporation, priority 1999, dated 2014)
